System: Aspergillus spores
Test: Effect of ions on fungal growth
Format: cell-based
Settings: 1000 Aspergillus spores/dish, 37° C., day 3 of culture, FIG. 8B
Procedure: To investigate the effect of ions on fungal growth, salt solutions were added at a high molecular concentration (0.1 M, 10 μL) and a low molecular concentration ([…], 10 μL) and fungi were cultured at 37° C. under conditions of 1000 Aspergillus spores/dish. The results are illustrated in FIG. 8B based on the colonies on day 3 of culture.

Row | Compound | effect of ions on fungal growth compared with Na+, Mg2+ or NH4+ ions
1 | O=[N+]([O-])[O-].O=[N+]([O-])[O-].[Zn+2] [Zn(NO3)2] | greater effect
2 | [Cl-].[Cl-].[Zn+2] [ZnCl2] | greater effect
